Source: US20110319379A1, “Substituted Indazole Amides And Their Use As Glucokinase Activators” (priority 2009, published 2011)

biological target: T1, recombinant human glucokinase (Homo sapiens, UniProt P35557); assay: Assay 2: Evaluating Activator Potency in a Matrix Assay at Multiple Glucose Concentrations; type: biochemical; conditions: Assay 2 matrix assay; 16 glucose concentrations; intrinsic EC50 = concentration affording a 50% reduction in the enzyme's Km (for glucose); read-out: Glucokinase EC50
T1 construct: Full-length glucokinase (beta cell isoform) was His-tagged at the N-terminus and purified by a Ni column followed by size exclusion chromatography as described above; His tag; made in house; host or cells: E. coli BL21(DE3), vector pBCGK
T1 sequence (P35557 1-465): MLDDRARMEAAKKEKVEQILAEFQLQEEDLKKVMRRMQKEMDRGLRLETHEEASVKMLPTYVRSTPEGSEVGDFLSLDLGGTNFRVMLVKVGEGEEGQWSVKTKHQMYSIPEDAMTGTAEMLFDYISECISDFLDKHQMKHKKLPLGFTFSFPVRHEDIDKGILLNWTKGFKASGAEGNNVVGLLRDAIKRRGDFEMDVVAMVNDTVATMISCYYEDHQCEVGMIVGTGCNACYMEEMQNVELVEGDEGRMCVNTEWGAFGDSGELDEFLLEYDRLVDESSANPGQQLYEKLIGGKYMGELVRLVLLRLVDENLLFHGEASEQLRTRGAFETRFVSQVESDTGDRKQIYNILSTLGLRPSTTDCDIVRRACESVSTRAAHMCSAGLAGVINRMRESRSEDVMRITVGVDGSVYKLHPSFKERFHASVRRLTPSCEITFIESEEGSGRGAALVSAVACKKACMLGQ
Description: Representative compounds of this invention were evaluated in biochemical assays (Assay 1 or Assay 2) to characterize their glucokinase activation properties.
The recombinant human glucokinase protein utilized in both assays was prepared and purified as described below.
BL21(DE3) cells (Invitrogen Corporation, Carlsbad, Calif.) containing pBCGK (C or N H is) vector were grown at 37° C. (in 2XYT) until the OD600 was between 0.6-1.0. Expression was induced by addition of isopropylthiogalactoside to a final concentration of 0.1-0.2 mM to the cells which were then incubated overnight at 23° C. The next day, cells were harvested via centrifugation at 5000 rpm for 15 minutes at 4° C. The cell pellet was stored at −80° C. for future purification.
Beta Cell Glucokinase His-Taq Purification Conditions: A Ni-NTA (Quigan, Germantown, Md.) column (15-50 mL) was used for separation. Two buffers were prepared, 1) a lysis/nickel equilibration and wash buffer and 2) a nickel elution buffer. The lysis/equilibration/wash buffer was prepared as such: 25 mM HEPES buffer at pH 7.5, 250 mM NaCl, 20 mM imidazole, and 14 mM β-mercaptoethanol as final concentrations. The elution buffer was prepared as such: 25 mM HEPES at pH 7.5, 250 mM NaCl, 400 mM imidazole, and 14 mM β-mercaptoethanol as final concentrations. The buffers were each filtered with a 0.22 μm filter prior to use. The cell pellet (1 L culture) was resuspended in 300 mL of the lysis/equilibration buffer. The cells were then lysed (3 times) with a Microfluidics Model 110Y microfluidizer (Microfluidics Corporation, Newton, Mass.). The slurry was centrifuged with a Beckman Coulter Model LE-80K ultracentrifuge (Beckman Coulter, Fullerton, Calif.) at 40,000 rpm for 45 minutes at 4° C. The supernatant was transferred to a chilled flask. A volume of 20 μl was saved for gel analysis. A Pharmacia AKTA (GMI, Inc., Ramsey, Minn.) purification system was used for separation. The prime lines were purged with lysis/equilibration buffer. The Ni-NTA column was equilibrated with 200 mL of the lysis/equilibration buffer at a flow rate of 5 mL/minute. The supernantant was loaded over the column at 4 mL/minute and the flow-through was collected in a flask. The unbound proteins were washed with lysis/equilibration buffer at a flow rate of 5 mL/minute until the ultraviolet reaches baseline. The protein was then eluted from the column with the imidazole elution buffer via imidazole gradient 20 mM to 400 mM over 320 mL. The column was then stripped of any additional protein with 80 mL of the elution buffer. The elution fractions were each 8 mL, for a total yield of 50 samples. Fractions were analyzed by sodium dodecyl sulfate polyacrylamide (SDS-PAGE) and the fractions containing protein of interest were pooled and concentrated to 10 mL using ultrafiltration cell with a 10,000 molecular weight cut-off (MWCO) Millipore membrane (Sigma-Aldrich, St. Louis, Mo.) under nitrogen gas (60 psi). Protein was further purified by size exclusion chromatography (SEC) using a […] (320 mL) (Amersham Pharmacia, Uppsala, Sweden). SEC was equilibrated with 450 mL sizing buffer containing 25 mM HEPES pH 7.0, 50 mM NaCl, and 5 mM dithiothreitol. Concentrated protein was then loaded over SEC and elution with 400 mL sizing buffer was performed overnight at 0.5 mL/minute. The elution fractions were 5 mL each. The fractions were analyzed by SDS-PAGE and protein containing fractions were pooled. Concentration was measured using Bradford Assay/BSA Standard. Purified protein was stored in small aliquots at −80° C.
Assay 2: Evaluating Activator Potency in a Matrix Assay at Multiple Glucose Concentrations
Utilizing an adaptation of this method, representative compounds of the current invention were evaluated at 22 different concentrations and 16 different glucose concentrations in a coupled enzyme assay system that detects glucokinase activity via depletion of β-NADH.

SMILES	EC50
CCn1cc2c(Oc3cnc(C(=O)N(C)C)c(F)c3)cc(C(=O)Nc3cnccn3)cc2n1 [Example 1BB, 4-(6-(dimethylcarbamoyl)-5-fluoropyridin-3-yloxy)-2-ethyl-N-(pyrazin-2-yl)-2H-indazole-6-carboxamide]	0.195 µM
Cc1cnc(NC(=O)c2cc(Oc3cnc(C(=O)N4CCC4)c(F)c3)c3cn(C)nc3c2)cn1 [Example 1BC, 4-(6-(azetidine-1-carbonyl)-5-fluoropyridin-3-yloxy)-2-methyl-N-(5-methylpyrazin-2-yl)-2H-indazole-6-carboxamide]	0.368 µM
CCn1cc2c(Oc3cnc(C(=O)N(C)C)nc3)cc(C(=O)Nc3ccc(C)cn3)cc2n1 [Example 1BD, 4-(2-(dimethylcarbamoyl)pyrimidin-5-yloxy)-2-ethyl-N-(5-methylpyridin-2-yl)-2H-indazole-6-carboxamide]	0.383 µM
COc1cnc(NC(=O)c2cc(Oc3cnc(C(=O)N(C)C)c(F)c3)c3cn(C)nc3c2)cn1 [Example 1BE, 4-(6-(dimethylcarbamoyl)-5-fluoropyridin-3-yloxy)-N-(5-methoxypyrazin-2-yl)-2-methyl-2H-indazole-6-carboxamide]	0.456 µM
CCOc1cnc(NC(=O)c2cc(Oc3ccc(S(C)(=O)=O)cc3)c3cn(CC)nc3c2)cn1 [Example 1BG, N-(5-ethoxypyrazin-2-yl)-2-ethyl-4-[4-(methylsulfonyl)phenoxy]-2H-indazole-6-carboxamide]	0.203 µM
CCc1cnc(NC(=O)c2cc(Oc3ccc(S(C)(=O)=O)cc3)c3cn(CC)nc3c2)cn1 [Example 1BH, 2-ethyl-N-(5-ethylpyrazin-2-yl)-4-[4-(methylsulfonyl)phenoxy]-2H-indazole-6-carboxamide]	0.536 µM
CCOc1cnc(NC(=O)c2cc(Oc3ccc(S(N)(=O)=O)cc3)c3cn(CC)nc3c2)cn1 [Example 1BI, 4-[4-(aminosulfonyl)phenoxy]-N-(5-ethoxypyrazin-2-yl)-2-ethyl-2H-indazole-6-carboxamide]	49.9 µM
CN(C)S(=O)(=O)c1ccc(Oc2cc(C(=O)Nc3ccn(C)n3)cc3nn(C)cc23)cc1 [Example 1BK, 4-{4-[(dimethylamino)sulfonyl]phenoxy}-2-methyl-N-(1-methyl-1H-pyrazol-3-yl)-2H-indazole-6-carboxamide]	1.01 µM
CNS(=O)(=O)c1ccc(Oc2cc(C(=O)Nc3ccn(C)n3)cc3nn(C)cc23)cc1 [Example 1BL, 2-methyl-4-{4-[(methylamino)sulfonyl]phenoxy}-N-(1-methyl-1H-pyrazol-3-yl)-2H-indazole-6-carboxamide]	1.8 µM
CCn1ccc(NC(=O)c2cc(Oc3ccc(S(C)(=O)=O)cc3)c3cn(CC)nc3c2)n1 [Example 1BM, 2-ethyl-N-(1-ethyl-1H-pyrazol-3-yl)-4-[4-(methylsulfonyl)phenoxy]-2H-indazole-6-carboxamide]	1.9 µM
CNS(=O)(=O)c1ccc(Oc2cc(C(=O)Nc3cnc(OC)cn3)cc3nn(C)cc23)cc1 [Example 1BN, N-(5-methoxypyrazin-2-yl)-2-methyl-4-{4-[(methylamino)sulfonyl]phenoxy}-2H-indazole-6-carboxamide]	0.684 µM
Cn1ccc(NC(=O)c2cc(Oc3cnc(C(=O)N4CCCC4)cn3)c3cn(C)nc3c2)n1 [Example 1BO, 2-methyl-N-(1-methyl-1H-pyrazol-3-yl)-4-(5-(pyrrolidine-1-carbonyl)pyrazin-2-yloxy)-2H-indazole-6-carboxamide]	0.25 µM
CCn1cc2c(Oc3cnc(C(=O)N4CCCC4)cn3)cc(C(=O)Nc3cnc(C)cn3)cc2n1 [Example 1BP, 2-ethyl-N-(5-methylpyrazin-2-yl)-4-(5-(pyrrolidine-1-carbonyl)pyrazin-2-yloxy)-2H-indazole-6-carboxamide]	0.29 µM
CCn1cc2c(Oc3cnc(C(=O)N4CCC4)cn3)cc(C(=O)Nc3ccn(C)n3)cc2n1 [Example 1BQ, 4-(5-(azetidine-1-carbonyl)pyrazin-2-yloxy)-2-ethyl-N-(1-methyl-1H-pyrazol-3-yl)-2H-indazole-6-carboxamide]	0.699 µM
CCn1cc2c(Oc3cnc(C(=O)N4CCC4)cn3)cc(C(=O)Nc3cnc(C)cn3)cc2n1 [Example 1BR, 4-(5-(azetidine-1-carbonyl)pyrazin-2-yloxy)-2-ethyl-N-(5-methylpyrazin-2-yl)-2H-indazole-6-carboxamide]	0.79 µM
Cn1ccc(NC(=O)c2cc(Oc3cnc(C(=O)N4CCC4)cn3)c3cn(C)nc3c2)n1 [Example 1BS, 4-(5-(azetidine-1-carbonyl)pyrazin-2-yloxy)-2-methyl-N-(1-methyl-1H-pyrazol-3-yl)-2H-indazole-6-carboxamide]	0.798 µM
CC(C)n1cc2c(Oc3cnc(C(=O)N4CCC4)cn3)cc(C(=O)Nc3ccn(C)n3)cc2n1 [Example 1BT, 4-(5-(azetidine-1-carbonyl)pyrazin-2-yloxy)-2-isopropyl-N-(1-methyl-1H-pyrazol-3-yl)-2H-indazole-6-carboxamide]	0.979 µM
CCn1cc2c(Oc3cnc(C(=O)N(C)C)cn3)cc(C(=O)Nc3ccn(C)n3)cc2n1 [Example 1BU, 4-(5-(dimethylcarbamoyl)pyrazin-2-yloxy)-2-ethyl-N-(1-methyl-1H-pyrazol-3-yl)-2H-indazole-6-carboxamide]	1.05 µM
CC(C)n1cc2c(Oc3cnc(C(=O)N(C)C)cn3)cc(C(=O)Nc3ccn(C)n3)cc2n1 [Example 1BV, 4-(5-(dimethylcarbamoyl)pyrazin-2-yloxy)-2-isopropyl-N-(1-methyl-1H-pyrazol-3-yl)-2H-indazole-6-carboxamide]	1.59 µM
Cn1cc2c(Oc3cnc(C(=O)N4CCCC4)cn3)cc(C(=O)Nc3cnn(C)n3)cc2n1 [Example 1BW, 2-methyl-N-(2-methyl-2H-1,2,3-triazol-4-yl)-4-(5-(pyrrolidine-1-carbonyl)pyrazin-2-yloxy)-2H-indazole-6-carboxamide]	4.64 µM

same assay, conditions: Glucokinase EC50, Assay 2 matrix assay; 16 glucose concentrations; intrinsic EC50 = concentration affording a 50% reduction in the enzyme's Km (for glucose)

SMILES	EC50
CCn1cc2c(Oc3cnc(C(=O)N4CCC4)c(F)c3)cc(C(=O)Nc3cnc(C)cn3)cc2n1 [Example 1AZ, 4-(6-(azetidine-1-carbonyl)-5-fluoropyridin-3-yloxy)-2-ethyl-N-(5-methylpyrazin-2-yl)-2H-indazole-6-carboxamide]	0.108 µM
CCn1cc2c(Oc3cnc(C(=O)N4CCC4)c(F)c3)cc(C(=O)Nc3ccn(C)n3)cc2n1 [Example 1BA, 4-(6-(azetidine-1-carbonyl)-5-fluoropyridin-3-yloxy)-2-ethyl-N-(1-methyl-1H-pyrazol-3-yl)-2H-indazole-6-carboxamide]	0.191 µM
